Measurements published in patent publication US9212130B2, “Heterocyclic derivative and pharmaceutical composition comprising the same” (SHIONOGI & CO., LTD., priority 2010, dated 2015).

Assays:
[1] = Bioavailability (BA) test; type: in vivo; settings: plasma; Mice or SD rats; oral 0.3 to 30 mg/kg vs intravenous 0.5 to 10 mg/kg; from AUCs
Method: Materials and Methods for Experiment of BA
• (1) Animals: Mice or SD rats were used • (2) Breeding conditions: Mice or SD rats were allowed to freely take solid food and sterilized tap water. • (3) Dose and grouping: orally or intravenously administered at a predetermined dose; grouping was as follows (Dose depends on the compound) Oral administration: 0.3 to 30 mg/kg (n=2 to 3) Intravenous administration: 0.5 to 10 mg/kg (n=2 to 3) • (4) Preparation of dosing solution: for oral administration, in a solution or a suspension state; for intravenous administration, in a solubilized state • (5) Administration method: in oral administration, forcedly administer into ventriculus with oral probe; in intravenous administration, administer from caudal vein with a needle-equipped syringe • (6) Evaluation items: blood was collected over time, and the plasma concentration of drug was measured by LC/MS/MS • (7) Statistical analysis: regarding the transition of the plasma concentration of the present compound, the area under the plasma concentration-time curve (AUC) was calculated by non-linear least squares program WinNonlin (Registered trade name), and the bioavailability (BA) was calculated from the AUCs of the oral administration group and intravenous administration group

[2] = Solubility test; type: physicochemical; settings: artificial intestinal juice (phosphate buffer) with 1% DMSO, 25 °C, other biorelevant, kinetic from dmso stock, artificial intestinal juice in pH 8.8, 25 degrees Celsius for 16 hours
Method: The solubility of a compound was determined under a condition in which 1% DMSO was added. 10 mmol/L compound solution was prepared using DMSO, and then 6 μL of the compound solution was added to 594 μL of artificial intestinal juice in […] (to 250 mL of 0.2 mol/L potassium dihydrogen phosphate reagent solution was added 118 mL of 0.2 mol/L NaOH reagent solution and water to provide a final volume of 1000 mL). After standing at 25 degrees Celsius for 16 hours, the mixed solution was filtrated with suction. The filtrate was diluted twice with methanol/water (1/1) and then a concentration in the filtration was measured with HPLC or LC/MS/MS by the absolute calibration method.

[3] = target: CYP1A2 (Homo sapiens (Human), UniProt P05177); assay: CYP inhibition test, 7-ethoxyresorufin O-deethylation; type: in vitro ADME; settings: pooled human hepatic microsome; 0.5 μmol/L ethoxyresorufin; given as 'five kinds'
CYP1A2, sequence (P05177 whole entry): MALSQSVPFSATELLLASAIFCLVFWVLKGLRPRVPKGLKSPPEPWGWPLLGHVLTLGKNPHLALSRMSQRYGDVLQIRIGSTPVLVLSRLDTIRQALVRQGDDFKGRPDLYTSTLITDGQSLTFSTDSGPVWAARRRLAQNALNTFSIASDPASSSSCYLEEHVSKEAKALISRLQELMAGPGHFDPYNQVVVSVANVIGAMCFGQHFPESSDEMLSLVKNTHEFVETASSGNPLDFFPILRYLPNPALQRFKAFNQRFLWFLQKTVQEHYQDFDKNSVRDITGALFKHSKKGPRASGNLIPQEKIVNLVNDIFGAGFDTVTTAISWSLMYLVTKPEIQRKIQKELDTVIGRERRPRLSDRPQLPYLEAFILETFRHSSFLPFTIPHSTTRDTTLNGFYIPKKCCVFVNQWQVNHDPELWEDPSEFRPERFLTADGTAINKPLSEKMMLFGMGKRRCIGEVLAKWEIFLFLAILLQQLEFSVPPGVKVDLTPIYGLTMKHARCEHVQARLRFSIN
Method: (§1) Using commercially available pooled human hepatic microsome, and employing, as markers, 7-ethoxyresorufin O-deethylation (CYP1A2), tolbutamide methyl-hydroxylation (CYP2C9), mephenyloin 4′-hydroxylation (CYP2C19), dextromethorphan O-demethylation (CYP2D6), and terfenedine hydroxylation as typical substrate metabolism reactions of human main five ([…] enzyme forms (CYP1A2, 2C9, 2C19, 2D6, 3A4), an inhibitory degree of each metabolite production amount by a test compound was assessed.
(§2) The reaction conditions were as follows: substrate, 0.5 μmol/L ethoxyresorufin (CYP1A2), 100 μmol/L tolbutamide (CYP2C9), 50 μmol/L S-mephenitoin (CYP2C19), 5 μmol/L dextromethorphan (CYP2D6), 1 μmol/L terfenedine (CYP3A4); reaction time, 15 minutes; reaction temperature, 37° C.; enzyme, pooled human hepatic microsome 0.2 mg protein/mL; test drug concentration, 1.0. 5.0, 10, 20 μmol/L (four points).
(§3) Each five kinds of substrates, human hepatic microsome, or a test drug in 50 mmol/L Hepes buffer as a reaction solution was added to a 96-well plate at the composition as described above. NADPH, as a cofactor was added to initiate metabolism reactions as markers and, after the incubation at 37° C. for 15 minutes, a methanol/acetonitrile=1/1 (v/v) solution was added to stop the reaction. After the centrifugation at 3000 rpm for 15 minutes, resorufin (CYP1A2 metabolite) in the supernatant was quantified by a fluorescent multilabel counter and tributamide hydroxide (CYP2CP metabolite), mephenyloin 4′ hydroxide (CYP2C19 metabolite), […], and terfenadine alcohol (CYP3A4 metabolite) were quantified by LC/MS/MS.
(§4) Addition of only DMSO being a solvent dissolving a drug to a reaction system was adopted as a control (100%), remaining activity (%) was calculated at each concentration of a test drug added as the solution and IC50 was calculated by reverse presumption by a logistic model using a concentration and an inhibition rate.

[4] = Metabolism stability test (pooled human hepatic microsomes); type: in vitro ADME; settings: human liver microsomes 0.5 mg protein/mL; 37° C., 30 minutes; 1 mmol/L NADPH; compound concentration 0.5 μmol/L
Method: Using commercially available pooled human hepatic microsomes, a test compound was reacted for a constant time, a remaining rate was calculated by comparing a reacted sample and an unreacted sample, thereby, a degree of metabolism in liver was assessed.
A reaction was performed (oxidative reaction) at 37° C. for 0 minute or 30 minutes in the presence of 1 mmol/L NADPH in 0.2 mL of a buffer (50 mmol/L tris-HCl pH 7.4, 150 mmol/L potassium chloride, 10 mmol/L magnesium chloride) containing 0.5 mg protein/mL of human liver microsomes. After the reaction, 50 μL of the reaction solution was added to 100 μL of a methanol/acetonitrile 1/1 (v/v), mixed and centrifuged at 3000 rpm for 15 minutes. The test compound in the supernatant was quantified by LC/MS/MS, and a remaining amount of the test compound after the reaction was calculated, letting a compound amount at 0 minute reaction time to be 100%.

[5] = target: human P2X3 receptor (Homo sapiens (Human), UniProt P56373); assay: Evaluation of human P2X3 receptor inhibitory activity (ATP-induced Fluo-3 fluorescence, FDSS 3000); type: cell-based; settings: C6BU-1 cell transfected with human P2X3 receptor gene
human P2X3 receptor, sequence (P56373 whole entry): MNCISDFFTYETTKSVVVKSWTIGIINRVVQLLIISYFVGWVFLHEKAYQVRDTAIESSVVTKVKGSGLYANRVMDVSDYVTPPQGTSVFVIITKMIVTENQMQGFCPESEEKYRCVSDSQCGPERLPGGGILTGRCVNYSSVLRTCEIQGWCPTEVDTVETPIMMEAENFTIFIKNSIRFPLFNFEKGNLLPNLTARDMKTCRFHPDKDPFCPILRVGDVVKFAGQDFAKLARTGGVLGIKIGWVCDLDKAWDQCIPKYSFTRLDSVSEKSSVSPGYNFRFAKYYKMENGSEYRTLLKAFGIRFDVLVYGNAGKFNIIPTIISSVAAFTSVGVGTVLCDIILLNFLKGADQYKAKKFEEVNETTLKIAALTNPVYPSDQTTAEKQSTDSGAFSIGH
Summary of the method: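 Human P2X3 inhibition read as ATP-evoked Fluo-3 calcium fluorescence; compound preincubated, then 50 nM ATP solution (concentration as dispensed) added and fluorescence followed 3 min. Response taken as peak-to-baseline fluorescence ratio per well; IC50 derived from concentration–response.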

[6] = target: CYP3A4 (Homo sapiens (Human), UniProt P08684); assay: CYP inhibition test, terfenedine hydroxylation; type: in vitro ADME; settings: pooled human hepatic microsome; 1 μmol/L terfenedine; given as 'five kinds'
CYP3A4, sequence (P08684 whole entry): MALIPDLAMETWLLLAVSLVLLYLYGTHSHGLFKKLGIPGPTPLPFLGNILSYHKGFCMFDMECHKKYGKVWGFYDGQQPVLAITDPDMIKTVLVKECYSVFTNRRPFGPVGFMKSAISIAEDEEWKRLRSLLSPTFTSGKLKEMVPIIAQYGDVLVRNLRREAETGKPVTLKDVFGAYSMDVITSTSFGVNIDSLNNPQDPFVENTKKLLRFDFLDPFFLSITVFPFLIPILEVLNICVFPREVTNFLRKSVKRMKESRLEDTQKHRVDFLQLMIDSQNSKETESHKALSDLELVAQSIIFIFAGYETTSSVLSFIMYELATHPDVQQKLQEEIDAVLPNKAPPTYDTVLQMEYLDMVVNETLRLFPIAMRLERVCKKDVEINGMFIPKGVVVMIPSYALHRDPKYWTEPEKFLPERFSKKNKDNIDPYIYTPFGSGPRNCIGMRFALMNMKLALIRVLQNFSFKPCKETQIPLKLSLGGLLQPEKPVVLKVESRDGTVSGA
Method: as §1, §2, §3, §4

[7] = target: CYP2C19 (Homo sapiens (Human), UniProt P33261); assay: CYP inhibition test, mephenyloin 4'-hydroxylation; type: in vitro ADME; settings: pooled human hepatic microsome; 50 μmol/L S-mephenitoin; given as 'five kinds'
CYP2C19, sequence (P33261 whole entry): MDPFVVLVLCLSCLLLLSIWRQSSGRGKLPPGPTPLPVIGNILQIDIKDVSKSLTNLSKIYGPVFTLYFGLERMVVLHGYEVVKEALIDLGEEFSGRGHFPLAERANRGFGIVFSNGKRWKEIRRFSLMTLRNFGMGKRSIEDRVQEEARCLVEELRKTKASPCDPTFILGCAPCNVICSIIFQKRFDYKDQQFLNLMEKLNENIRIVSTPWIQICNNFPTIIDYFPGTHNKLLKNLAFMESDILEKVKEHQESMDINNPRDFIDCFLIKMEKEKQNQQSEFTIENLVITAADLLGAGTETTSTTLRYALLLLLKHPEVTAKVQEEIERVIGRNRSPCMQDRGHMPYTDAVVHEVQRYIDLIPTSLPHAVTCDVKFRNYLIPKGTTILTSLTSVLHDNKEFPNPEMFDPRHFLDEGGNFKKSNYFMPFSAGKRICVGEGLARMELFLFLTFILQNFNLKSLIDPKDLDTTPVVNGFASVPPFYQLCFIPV
Method: as §1, §2, §3, §4

[8] = target: CYP2D6 (Homo sapiens (Human), UniProt P10635); assay: CYP inhibition test, dextromethorphan O-demethylation; type: in vitro ADME; settings: pooled human hepatic microsome; 5 μmol/L dextromethorphan; given as 'five kinds'
CYP2D6, sequence (P10635 whole entry): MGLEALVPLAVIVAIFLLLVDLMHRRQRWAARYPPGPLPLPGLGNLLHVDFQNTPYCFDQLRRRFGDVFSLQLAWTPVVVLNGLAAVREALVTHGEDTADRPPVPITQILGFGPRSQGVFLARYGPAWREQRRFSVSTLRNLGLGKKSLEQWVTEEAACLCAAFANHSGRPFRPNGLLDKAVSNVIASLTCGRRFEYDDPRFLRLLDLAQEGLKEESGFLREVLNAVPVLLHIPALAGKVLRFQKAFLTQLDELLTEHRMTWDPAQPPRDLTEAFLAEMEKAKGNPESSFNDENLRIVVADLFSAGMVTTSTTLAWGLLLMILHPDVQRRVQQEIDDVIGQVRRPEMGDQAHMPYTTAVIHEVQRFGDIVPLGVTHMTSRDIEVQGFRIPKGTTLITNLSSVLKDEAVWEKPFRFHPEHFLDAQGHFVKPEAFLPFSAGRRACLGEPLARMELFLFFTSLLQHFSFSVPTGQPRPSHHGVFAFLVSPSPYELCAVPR
Method: as §1, §2, §3, §4

`CC(C)Oc1ccc(Nc2cc(=O)n(C[C@H](C)C(=O)O)c(=O)n2Cc2ccc(Cl)cc2)cc1Cl` [I-100] gave a bioavailability [1] of 29.2%, a solubility at 16 h [2] greater than 50 µM and an IC50 [3] greater than 20 µM. For the same molecule, the remaining rate [4] was 101%, the IC50 [5] was 0.009 µM and the IC50 [6] was greater than 20 µM. It also gave an IC50 [7] greater than 20 µM and an IC50 [8] greater than 20 µM.
